Measurements taken from article PMC8269107, “Lipidation of Temporin-1CEb Derivatives as a Tool for Activity Improvement, Pros and Cons of the Approach” (International Journal of Molecular Sciences, 2021).
Converted amounts (≈) assume the structure as drawn. Read-outs that look alike come from different tables or passages of the source. Where a SMILES comes first, the peptide text is derived from it. [ ]: non-standard residue; d: D form. The star is where a group is joined. Lauroyl = CCCCCCCCCCCC(=O)*; Pentanoyl = CCCCC(=O)*; AEEA = NCCOCCOCC(=O)O; βAla = NCCC(=O)O

Columns and labels:
[1] = Serum stability in 25% human serum (RP-UPLC); details: male, amount of the intact compound, after 5 h of incubation in 25% human serum, 37 °C
Protocol: At the beginning of the experiment, 25% human serum (human serum, from human male AB plasma, Sigma-Aldrich) was centrifuged at 12,000 rpm for 10 min in order to remove the excessive amount of lipids in the serum preparation, and the supernatant was collected and incubated at 37 °C for 15 min under shaking. The assay was initiated upon the addition of the peptide to the serum yielding a final peptide concentration of 75 µg/mL. The 50 µL aliquots of the incubated mixtures were taken at the following time intervals: 0, 30, 60, 120, 240 and 300 min. The aliquots were mixed with 50 µL of absolute ethanol, incubated on ice for 15 min to precipitate serum proteins and then centrifuged (12,000 rpm, 10 min). The supernatants were collected and lyophilized. Dry samples were further dissolved in 100 µL of HPLC-grade water and then analyzed. […]
RP-UPLC analysis was performed using Nexera system (Shimadzu Europe GmbH, Duisburg, Germany) with C12 Jupiter Proteo column (150 × 2 mm, 90Å, 4 micron) (Phenomenex, USA) applying a linear aqueous acetonitrile gradient 1–80%B in 20 min using solutions A (0.1% TFA in water) and B (0.1%TFA in 80% acetonitrile) with a flow rate 0.6 mL/min and detection at 220 nm. The quantity of the intact peptide at each time point was expressed as a percentage of the peak area with respect to time “zero” (100%).

[2] = system: K.pneumoniae ATCC 13883; type: cell-based, Klebsiella pneumoniae
Text: (§1) Escherichia coli (PCM 2057 = ATCC 25922), Staphylococcus aureus (PCM 2054 = ATCC 25923), Staphylococcus epidermidis (PCM 2118 = ATCC 14990), Bacillus subtilis (PCM 2224 = ATCC 9799), Bacillus cereus (PCM 482 = ATCC 10702) and Pseudomonas aeruginosa (PCM 499 = ATCC 10145) were obtained from the Polish Collection of Microorganisms. Fungi strains Candida albicans (CCM 8186 = CNTC 49/64), Candida glabrata (CCM 8270 = ATCC 90030), Candida parapsilosis (CCM 8260 = ATCC 22019) and Candida krusei (CCM 8271 = ATCC 6258) were acquired from the Czech Collection of Microorganisms. S. aureus USA300 (wild type strain), the reference strain of Klebsiella pneumoniae (ATCC 13883) and clinical isolates of Pseudomonas aeruginosa (PA1, PA2) collected from nonrelated patients admitted to the Stefan Zeromski Specialist Municipal Hospital in Krakow (Poland) were kindly provided by the research group of the Department of Microbiology, Faculty of Biochemistry, Biophysics and Biotechnology, Jagiellonian University, Krakow, Poland.
(§2) Luria-Bertani broth (LB) and Sabouraud Dextrose broth (SB) (Biocorp, Poland) were used for cultivation of bacteria and fungi strains, respectively. The antimicrobial activity of the peptides were analyzed through determination of MIC (minimal inhibitory concentration) parameters according to Clinical and Laboratory Standards (CLSI) guidelines developed for aerobic bacteria and yeasts, respectively. Mueller-Hinton broth (MHB) was used as the working medium for all bacterial strains, while in the case of fungi, RPMI-1640 (with L-glutamine, without sodium bicarbonate) growth medium buffered with MOPS (morpholinepropanesulfonic acid) and supplemented with 2% glucose was used. Inoculum was prepared from freshly grown cultures of microorganisms at their exponential phase of growth. […] Plates were then incubated for 24 h at 37 °C in the case of bacteria and at 35 °C in the case of fungi. After that time, absorbance was read at 590 nm with a Perkin Elmer plate reader. Cultures without peptide were treated as positive control, while uninoculated media were defined as negative control. All measurements were run at least in triplicate.

[3] = system: P. aeruginosa PA1; type: cell-based, Pseudomonas aeruginosa
Text: as §1, §2

[4] = system: P. aeruginosa PA2; type: cell-based, Pseudomonas aeruginosa
Text: as §1, §2

[5] = system: S. aureus USA300; type: cell-based, Staphylococcus aureus
Text: as §1, §2

[6] = ITC, binding to zwitterionic membrane; details: 25 °C; for pKITC: POPC LUVs
Protocol: The ITC experiments were performed according to the previously reported protocol in PBS (pH 7.4) at 25 °C using an AutoITC isothermal titration calorimeter (MicroCal Inc., Northampton, USA) with a 1.4491-mL sample and reference cells filled with distilled water. In each experiment, 29 injections of 10.02 µL each (2 µL for the first only) of a liposome solution at a concentration of 1.31 mM were added into a 0.05 mM and/or 0.1 mM peptide solution. An initial 2-μL injection was discarded from each dataset in order to remove the effect of titrant diffusion across the syringe tip during the equilibration process. Each injection lasted 20 s. The titrant was injected at 4 min intervals to ensure that the titration peak returned to the baseline before the next injection. To ensure a homogeneous mixing in the cell, the stirrer speed was kept constant at 300 rpm.
A complete binding of the peptide to lipid vesicles provides the possibility for determination of the total binding enthalpy (∆H) as well as a binding constant (Ka), reflecting the affinity of the lipopeptide to liposomes, stoichiometry of binding (n), that is, the number of phospholipids per peptide, by fitting the titration result data to one set of sites’ model using Origin 7 from MicroCal. Changes in entropy (∆S) and the Gibbs free energy (∆G) were calculated from Equation (1), where factor 55.5 is the molar concentration of water, R is the gas constant (1.986 cal·mol^−1·K^−1) and T is the absolute temperature:∆G = -RTln(55.5Ka) = ∆H-T∆S(1)
The liposomes for ITC experiments were made of POPC or POPG lipids. The lipids were dissolved in a chloroform:methanol (2:1; v/v) mixture, evaporated under nitrogen and desiccated under vacuum overnight to remove any residual solvents. Afterwards, the dry lipid film was resuspended in a phosphate buffer solution and shaken for 2 h at room temperature (phase transition point, Tm = −2 °C) to obtain multilamellar vesicles (MLVs). […]

[7] = system: S. aureus PCM 2054; type: cell-based, Staphylococcus aureus; details: S. aureus PCM 2054, Mueller-Hinton broth + 1% human serum
Protocol: Additionally, we performed a comparative analysis of MICs obtained for the tested compounds against S. aureus PCM2054 in two types of growth medium, i.e., the standard MHB and MHB supplemented with 1% human serum and in the absence of 1% serum. The assay was performed as described in 4.3.1.

[8] = P. aeruginosa PA1 clinical isolate
[9] = P. aeruginosa PA2 clinical isolate

SMILES | remaining at 5 h, 75 µg/mL [1] | MIC100 ([2]; K.pneumoniae ATCC 13883) | MIC100 [3, 8] | MIC100 [4, 9] | MIC100 [5] | pKITC [6] | MIC100 ([2]; ATCC 13883, 24 h) | MIC100 ([3]; PA1, 24 h) | MIC100 ([4]; PA2, 24 h) | MIC [7] | binding constants (order of) ([6]; POPC vesicles)
CCCCC(=O)NCCC(=O)N[C@@H](Cc1c[nH]cn1)C(=O)NCCOCCOCC(=O)N[C@H](C(=O)N[C@@H](CCCCN)C(=O)N[C@@H](CCCCN)C(=O)N[C@H](C(=O)N[C@@H](CC(C)C)C(=O)N[C@@H](CO)C(=O)N[C@@H](CCCCN)C(=O)N[C@H](C(=O)N[C@@H](CCCCN)C(=O)N[C@@H](CCCCN)C(=O)N[C@@H](CC(C)C)C(=O)N[C@@H](CC(C)C)C(N)=O)[C@@H](C)CC)[C@@H](C)CC)[C@@H](C)CC [C5-CAR-PEG-DK5] ({Pentanoyl-βAla}-H[AEEA]IKKILSKIKKLL-NH2) | 77% | – | – | – | – | – | – | – | – | – | –
CCCCCCCCCCCC(=O)NCCC(=O)N[C@@H](Cc1c[nH]cn1)C(=O)NCCOCCOCC(=O)N[C@H](C(=O)N[C@@H](CCCCN)C(=O)N[C@@H](CCCCN)C(=O)N[C@H](C(=O)N[C@@H](CC(C)C)C(=O)N[C@@H](CO)C(=O)N[C@@H](CCCCN)C(=O)N[C@H](C(=O)N[C@@H](CCCCN)C(=O)N[C@@H](CCCCN)C(=O)N[C@@H](CC(C)C)C(=O)N[C@@H](CC(C)C)C(N)=O)[C@@H](C)CC)[C@@H](C)CC)[C@@H](C)CC [C12-CAR-PEG-DK5] ({Lauroyl-βAla}-H[AEEA]IKKILSKIKKLL-NH2) | – | 12.5 µg/mL (≈ 6.38 µM) | 12.5 µg/mL (≈ 6.38 µM) | 25 µg/mL (≈ 12.8 µM) | 12.5 µg/mL (≈ 6.38 µM) | 5.38 ± 0.14 | – | – | – | – | –
CC[C@H](C)[C@H](NC(=O)COCCOCCNC(=O)[C@H](Cc1c[nH]cn1)NC(=O)CCN)C(=O)N[C@@H](CCCCN)C(=O)N[C@@H](CCCCN)C(=O)N[C@H](C(=O)N[C@@H](CC(C)C)C(=O)N[C@@H](CO)C(=O)N[C@@H](CCCCN)C(=O)N[C@H](C(=O)N[C@@H](CCCCN)C(=O)N[C@@H](CCCCN)C(=O)N[C@@H](CC(C)C)C(=O)N[C@@H](CC(C)C)C(N)=O)[C@@H](C)CC)[C@@H](C)CC [CAR-PEG-DK5] (H-[βAla]H[AEEA]IKKILSKIKKLL-NH2; N-terminus and C-terminus assumed) | – | – | – | – | >200 µg/mL | – | >200 µg/mL | 100 µg/mL (≈ 56.3 µM) | 100 µg/mL (≈ 56.3 µM) | – | –
CCCCC(=O)N[C@H](C(=O)N[C@@H](CCCCN)C(=O)N[C@@H](CCCCN)C(=O)N[C@H](C(=O)N[C@@H](CC(C)C)C(=O)N[C@@H](CO)C(=O)N[C@@H](CCCCN)C(=O)N[C@H](C(=O)N[C@@H](CCCCN)C(=O)N[C@@H](CCCCN)C(=O)N[C@@H](CC(C)C)C(=O)N[C@@H](CC(C)C)C(N)=O)[C@@H](C)CC)[C@@H](C)CC)[C@@H](C)CC [Compound C5-DK5] (Pentanoyl-IKKILSKIKKLL-NH2) | 46.2% | 50 µg/mL (≈ 33.2 µM) | 25 µg/mL (≈ 16.6 µM) | 25 µg/mL (≈ 16.6 µM) | 25 µg/mL (≈ 16.6 µM) | – | – | – | – | 25 µg/mL | either a lack of interactions or that the binding was too weak to be detectable by ITC
CCCCCCCCCCCC(=O)N[C@H](C(=O)N[C@@H](CCCCN)C(=O)N[C@@H](CCCCN)C(=O)N[C@H](C(=O)N[C@@H](CC(C)C)C(=O)N[C@@H](CO)C(=O)N[C@@H](CCCCN)C(=O)N[C@H](C(=O)N[C@@H](CCCCN)C(=O)N[C@@H](CCCCN)C(=O)N[C@@H](CC(C)C)C(=O)N[C@@H](CC(C)C)C(N)=O)[C@@H](C)CC)[C@@H](C)CC)[C@@H](C)CC [Compound C12-DK5] (Lauroyl-IKKILSKIKKLL-NH2) | – | 25 µg/mL (≈ 15.6 µM) | 50 µg/mL (≈ 31.1 µM) | 50 µg/mL (≈ 31.1 µM) | 25 µg/mL (≈ 15.6 µM) | 4.40 ± 0.19 | – | – | – | 25 µg/mL | –
